Source: patent US7615361B2, “Toxicity screening methods” (Ceetox, Inc., priority 2006, dated 2009)

What was measured:
Intracellular ATP levels [1] = assay type: cell-based; conditions: rat, NRK cells, read-out: ATP TC50
Procedure: (§1) Intracellular ATP Levels: Cellular Adenosine triphosphate (ATP) was determined with an assay based on a reaction between ATP+D-luciferin+oxygen catalyzed by luciferase to yield Oxyluciferin+AMP+PPi+CO2+light. The emitted light is proportional to the amount of ATP present. […] In addition, a unique cell lysis reagent inhibits endogenous ATPases and therefore stabilizes cellular ATP by preventing its degradation to ADP. ATP is present in all-living cells and declines rapidly upon cell death. In addition, this assay in combination with the MTT assay provides an indicator of mitochondrial activity and energy status of the cell.
(§2) Plates were analyzed immediately or stored at −20° C. until needed. On the day of analysis, the plates were thawed and calibration curve prepared with ATP in the same liquid matrix as samples. ATP was quantified by adding ATP substrate solution and then reading luminescence on a Packard Fusion Luminescence or equivalent plate reader.
(§3) Intracellular ATP Levels: ATP levels in treated cells could be determined by using the regression coefficients obtained from the linear regression analysis of the calibration curve. Thus, values could be expressed as pmoles ATP/million cells. Background corrected luminescence was used to determine percent change relative to controls by dividing treated values by control values and multiplying by 100.
(§4) The third experiment was done to evaluate the specificity and selectivity of the test compound in another non-tumor cell that was derived from normal rat kidney tissue. In this experiment the test compound has no effect on cell number of acute cell death up to the 500 dilution after 6 and 24 hr of exposure (FIG. 76C and 77C). Significant effects were observed on mitochondrial markers at dilutions that dropped pH to 3.7. The bar graph in FIG. 82 summarizes these effects. […] In contrast the rat tumor cell line was sensitive to the test compound and cell death occurred at the 500 dilution and could not be attributed to low pH.

HUVEC = test: Predicted Ctox from Tox-Panel; assay type: cell-based, human; conditions: 24 HR
Procedure: (§5) Studies such as these indicate that a preferred concentration for setting Ctox is the highest concentration at which there is no observed effect on any of the indicators being measured in the cluster analysis, especially a 24-hour cluster analysis. […] It will be apparent that 24 hour assays are more time-effective, and consequently, the 24 hour NOEL/Ctox represents a preferred data point to select as Ctox in a CATS assay. It will also be apparent that, with further time studies, it may be possible to select an equally suitable Ctox at other CATS assay time points (e.g., between 24 and 72 hours, or less than 24 hours).
(§6) In certain embodiments, the predicting comprises performing concentration response analyses of measurements from at least three separate assays that are employed in the cluster analysis. For example, in the cell health cluster, such predicting will involve monitoring the concentration response effect of the compound on a first health indicator which monitors cellular replication, a second cell health indicator which monitors mitochondrial function, and a third cell health indicator which monitors membrane integrity. Of course, it is understood that fourth, fifth, sixth or more cell health indicators also may be employed. From these concentration response analyses, the highest concentration of the chemical compound at which a measurable toxic effect of the chemical compound is not observable, i.e. NOEL, is determined and the Ctox is identified as the concentration that correlates to the NOEL. In choosing the concentrations of the compound for analysis, one of skill in the art should devise a dose response regimen which is selected to provide an indication of cell health at concentrations of at least two concentration values higher than the Ctox concentration.
(§7) The results are summarized in Tables 14-17 and in FIGS. 83-102. Table 14 compares the test compound TC50 values for each assay endpoint. Test compounds are rank-ordered from most to least toxic based on their TC50 values and overall shape of the response curves. The Ctox value, or estimated sustained blood concentration where toxicity would first be expected to occur in a rat 14-day repeated dose study, is also included in this table. Negative and positive controls are included with every run. Assay response is continually monitored to assure reliable results. […] Table 15 summarizes oxidative stress and apoptosis data, Table 16 summarizes the solubility data, and Table 17 provides information on interaction with PgP.
(§8) The Ctox value was developed using 24 hr in vitro (H4IIE) toxicity data and was validated by retrospectively evaluating compounds across different classes of drugs in 14-day rat studies in which compounds were administered on a daily basis and pharmacokinetic data was available. […] Thus, Ctox values are only determined for the 24 hr in vitro results. In this example, Ctox values could not be estimated due to low toxicity in most of the cell lines.

NHEM cells = test: Predicted Ctox from Tox-Panel; assay type: cell-based, human; conditions: 24 HR
Procedure: as §5, §6, §7, §8

SK-MEL28 cells = test: Predicted Ctox from Tox-Panel; assay type: cell-based, human; conditions: SK-MEL28, 24 HR
Procedure: as §5, §6, §7, §8

MTT reduction = assay type: cell-based; conditions: rat, NRK cells, read-out: MTT TC50
Text: Tetrazolium Dye Reduction: 3-[4,5-dimethylthiazol-2-yl]
as §4

P-glycoprotein (PgP) = P-glycoprotein (PgP) (Homo sapiens, UniProt P08183); test: P-glycoprotein (PgP) binding: MTT with and without cyclosporin A, HUVEC; assay type: cell-based; design: SK-MEL28, human hepatocytes, HUVEC, C32, and NHEM cells were used as the test systems; endogenous in cells; conditions: HUVEC 24 HR; for % Control (Compound + CSA): with cyclosporin A; for % Control (Compound): without CSA
P-glycoprotein (PgP), sequence (P08183 whole entry): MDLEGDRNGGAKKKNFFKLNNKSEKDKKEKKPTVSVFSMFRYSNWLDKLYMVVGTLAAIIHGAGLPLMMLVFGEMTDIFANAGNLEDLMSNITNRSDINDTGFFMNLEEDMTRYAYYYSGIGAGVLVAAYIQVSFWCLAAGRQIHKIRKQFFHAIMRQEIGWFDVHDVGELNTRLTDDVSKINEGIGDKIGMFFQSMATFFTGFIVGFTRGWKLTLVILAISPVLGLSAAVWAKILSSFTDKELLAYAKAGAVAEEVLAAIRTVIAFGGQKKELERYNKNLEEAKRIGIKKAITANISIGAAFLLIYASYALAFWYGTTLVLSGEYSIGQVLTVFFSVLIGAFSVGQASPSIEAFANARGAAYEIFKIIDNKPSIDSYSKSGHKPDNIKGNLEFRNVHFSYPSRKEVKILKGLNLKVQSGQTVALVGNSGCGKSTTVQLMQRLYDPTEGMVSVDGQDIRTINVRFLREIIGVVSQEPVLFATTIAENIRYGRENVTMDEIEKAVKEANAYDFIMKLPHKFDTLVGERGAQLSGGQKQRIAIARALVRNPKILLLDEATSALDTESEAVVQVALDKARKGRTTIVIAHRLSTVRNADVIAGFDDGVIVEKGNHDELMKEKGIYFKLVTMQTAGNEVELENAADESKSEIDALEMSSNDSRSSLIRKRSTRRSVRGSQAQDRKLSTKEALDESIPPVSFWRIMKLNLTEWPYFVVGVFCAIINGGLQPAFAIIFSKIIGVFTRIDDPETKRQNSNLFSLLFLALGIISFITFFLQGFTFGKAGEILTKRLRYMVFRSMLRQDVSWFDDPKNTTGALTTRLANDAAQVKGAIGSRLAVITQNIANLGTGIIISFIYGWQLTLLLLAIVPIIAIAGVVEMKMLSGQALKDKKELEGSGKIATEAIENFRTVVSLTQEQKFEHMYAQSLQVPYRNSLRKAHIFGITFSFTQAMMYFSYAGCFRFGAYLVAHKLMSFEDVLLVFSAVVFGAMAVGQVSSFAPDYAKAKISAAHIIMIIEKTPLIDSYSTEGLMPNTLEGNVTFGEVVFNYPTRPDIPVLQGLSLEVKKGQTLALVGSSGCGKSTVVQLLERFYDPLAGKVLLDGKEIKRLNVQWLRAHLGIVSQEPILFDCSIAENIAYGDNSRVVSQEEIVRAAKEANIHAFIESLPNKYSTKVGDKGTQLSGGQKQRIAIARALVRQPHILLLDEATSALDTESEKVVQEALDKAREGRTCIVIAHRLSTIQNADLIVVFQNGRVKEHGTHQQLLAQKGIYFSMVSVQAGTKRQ

[2] = MemTox membrane leakage (AK / α-GST); assay type: cell-based; conditions: rat, NRK cells, read-out: GST TC50
Procedure: Membrane Leakage (α-Glutathione S-transferase and/or Adenylate Kinase): The presence of Adenylate Kinase (AK) or α-Glutathione S-transferase (α-GST), both enzyme leakage markers, was measured in the culture medium using an activity assay for Adenylate Kinase and/or an ELISA assay for α-GST. At the end of the exposure period, the medium covering the cells in each well was removed and placed into new 96-well plates with appropriate labeling. […] Luminescence (AK) values were measured with a Packard Fusion or equivalent plate reader, and absorbance (α-GST) values were measured with a Packard SpectraCount™ or equivalent reader at 450 nm and reference absorbance at 650 nm.
Membrane Leakage (α-Glutathione S-transferase and/or Adenylate Kinase): Leakage of Adenylate Kinase or α-GST from the cell into the culture medium was determined by collecting the culture medium at the end of the exposure period. Thus, the values measured represent total enzyme leakage lost over the exposure period. The control for 100% dead or maximum enzyme release was based on cells treated with 1 mM digitonin at the time of dosing. Percent dead cells relative to digitonin treated cells was determined and then subtracted from 100% to yield the percent live cells.
as §4

Intracellular ATP levels [3] = assay type: cell-based; conditions: read-out: ATP TC50; for CC50 at 72 h: SK-MEL28, 72 HR, run #2
Procedure: as §1, §2, §3
Dosing solutions were prepared in complete culture medium.

human hepatocytes = test: Predicted Ctox from Tox-Panel; assay type: cell-based; conditions: 24 HR
Procedure: as §5
In certain embodiments, the predicting comprises performing concentration response analyses of measurements from at least three separate assays that are employed in the cluster analysis. […] From these concentration response analyses, the highest concentration of the chemical compound at which a measurable toxic effect of the chemical compound is not observable, i.e. NOEL, is determined and the Ctox is identified as the concentration that correlates to the NOEL. […]
The results are summarized in Tables 14-17 and in FIGS. 83-102. […] Assay response is continually monitored to assure reliable results. […]

Row | SMILES | CC50 at 6 h (Intracellular ATP levels [1]) [µM] | CC50 at 24 h (Intracellular ATP levels [1]) [µM] | Predicted Ctox (HUVEC) [µM] | Predicted Ctox (NHEM cells) [µM] | Predicted Ctox (SK-MEL28 cells) [µM] | Predicted Ctox (SK-MEL28 cells; run #2) [µM] | CC50 at 6 h (MTT reduction) [µM] | CC50 at 24 h (MTT reduction) [µM] | % Control (Compound + CSA) (P-glycoprotein (PgP)) [%] | % Control (Compound) (P-glycoprotein (PgP)) [%] | CC50 at 6 h [2] [µM] | CC50 at 24 h [2] [µM] | CC50 at 24 h (Intracellular ATP levels [3]; human, HUVEC) [µM] | CC50 at 24 h (Intracellular ATP levels [3]; human, SK-MEL28 cells, SK-MEL28, 24 HR) [µM] | CC50 at 72 h (Intracellular ATP levels [3]; human, SK-MEL28 cells) [µM] | Predicted Ctox (human hepatocytes) [µM] | CC50 at 24 h (Intracellular ATP levels [3]; human hepatocytes) [µM]
1 | CC[C@@]1(O)C(=O)OCc2c1cc1n(c2=O)Cc2cc3ccccc3nc2-1 [CAMPTOTHECIN, Camptothecin] | 300 | 9 | 0.1 | 33 | 0.1 | 0.1 | 300 | 100 | 18.0 | 29.4 | 300 | 100 | 40 | 293 | 0.1 | 23 | 
2 | C=C(C)[C@H]1Cc2c(ccc3c2O[C@@H]2COc4cc(OC)c(OC)cc4[C@@H]2C3=O)O1 [ROTENONE, Rotenone] | 10 | 10 | 0.1 | 10 | 1 | 0 | 10 | 10 | 77.8 | 75.4 | 10 | 10 |  |  | 2 | 0.6 | 6
